Source: patent US20120053053A1, “PYRIMIDINE DERIVATIVES AND THEIR USE AS HERBICIDES” (SYNGENTA CROP PROTECTION, LLC, priority 2009, published 2012)

Experiments:
Type in all cases: in vivo
[1] = tested on: Alopecurus myosuroides (ALOMY); assay: Pre-emergence biological efficacy (percentage damage); conditions: dose 1,000 g/ha, evaluated after 13 days, 100=total damage, 0=no damage; for pest or weed control at 1000 g/ha: Alopecurus myosuroides, 312 h
Procedure, shortened: (§1)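 Sow seeds in pots of standard soil; hold 1 day in glasshouse (24/16 °C, 14 h light, 65% humidity). Spray aqueous solution from acetone/water (50:50) with 0.5% Tween 20 at 250 or 1000 g/ha. Grow on, watering twice daily; rate damage at 13 days.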

[2] = tested on: Amaranthus retoflexus (AMARE); assay: as above; conditions: dose 1,000 g/ha, evaluated after 13 days, 100=total damage, 0=no damage; for pest or weed control at 1000 g/ha: Amaranthus retroflexus, 312 h
Procedure, shortened: as §1

[3] = tested on: Echinochloa crus-galli (ECHCG); assay: as above; conditions: dose 1,000 g/ha, evaluated after 13 days, 100=total damage, 0=no damage; for pest or weed control at 1000 g/ha: Echinochloa crus-galli, 312 h
Procedure, shortened: as §1

[4] = tested on: Ipomea hederaceae (IPOHE); assay: as above; conditions: dose 1,000 g/ha, evaluated after 13 days, 100=total damage, 0=no damage; for pest or weed control at 1000 g/ha: Ipomoea hederacea, 312 h
Procedure, shortened: as §1

[5] = tested on: Setaria faberi (SETFA); assay: as above; conditions: dose 1,000 g/ha, evaluated after 13 days, 100=total damage, 0=no damage; for pest or weed control at 1000 g/ha: Setaria faberi, 312 h
Procedure, shortened: as §1

[6] = tested on: Solanum nigrum (SOLNI); assay: as above; conditions: dose 1,000 g/ha, evaluated after 13 days, 100=total damage, 0=no damage; for pest or weed control at 1000 g/ha: Solanum nigrum, 312 h
Procedure, shortened: as §1

[7] = tested on: Alopecurus myosuroides (ALOMY); assay: Post-emergence biological efficacy (percentage damage); conditions: dose 1,000 g/ha, evaluated after 13 days, 100=total damage, 0=no damage; for pest or weed control at 1000 g/ha: Alopecurus myosuroides, 312 h
Procedure, shortened: (§2)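 Percentage damage (0 no damage to 100 total) was assessed 13 days after spraying plants raised for 8 days in pots. Test compound was applied as an aqueous acetone/water (50:50) spray containing 0.5% Tween 20 to give 250 or 1000 g/ha.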

[8] = tested on: Amaranthus retoflexus (AMARE); assay: as above; conditions: dose 1,000 g/ha, evaluated after 13 days, 100=total damage, 0=no damage; for pest or weed control at 1000 g/ha: Amaranthus retroflexus, 312 h
Procedure, shortened: as §2

[9] = tested on: Echinochloa crus-galli (ECHCG); assay: as above; conditions: dose 1,000 g/ha, evaluated after 13 days, 100=total damage, 0=no damage; for pest or weed control at 1000 g/ha: Echinochloa crus-galli, 312 h
Procedure, shortened: as §2

[10] = tested on: Ipomea hederaceae (IPOHE); assay: as above; conditions: dose 1,000 g/ha, evaluated after 13 days, 100=total damage, 0=no damage; for pest or weed control at 1000 g/ha: Ipomoea hederacea, 312 h
Procedure, shortened: as §2

[11] = tested on: Setaria faberi (SETFA); assay: as above; conditions: dose 1,000 g/ha, evaluated after 13 days, 100=total damage, 0=no damage; for pest or weed control at 1000 g/ha: Setaria faberi, 312 h
Procedure, shortened: as §2

[12] = tested on: Solanum nigrum (SOLNI); assay: as above; conditions: dose 1,000 g/ha, evaluated after 13 days, 100=total damage, 0=no damage; for pest or weed control at 1000 g/ha: Solanum nigrum, 312 h
Procedure, shortened: as §2

SMILES	pest or weed control at 1000 g/ha [1]	pest or weed control at 1000 g/ha [2]	pest or weed control at 1000 g/ha [3]	pest or weed control at 1000 g/ha [4]	pest or weed control at 1000 g/ha [5]	pest or weed control at 1000 g/ha [6]	pest or weed control at 1000 g/ha [7]	pest or weed control at 1000 g/ha [8]	pest or weed control at 1000 g/ha [9]	pest or weed control at 1000 g/ha [10]	pest or weed control at 1000 g/ha [11]	pest or weed control at 1000 g/ha [12]	other results
C=Cc1c(N)nc(-c2ccc(Cl)c(N(C)C)c2F)nc1C(=O)O [Compound 33-21, 4-Amino-2-(4-chloro-3-dimethylamino-2-fluorophenyl)-5-ethenylpyrimidine-6-carboxylic acid]	90%	100%	100%	80%	100%	100%	90%	100%	100%	70%	100%	90%	–
COC(=O)c1nc(-c2ccc(Cl)c(N(C)C)c2F)nc(N)c1C [Compound 33-41]	10%	20%	10%	0%	30%	30%	30%	100%	50%	10%	70%	70%	–
COC(=O)c1nc(-c2ccc(Cl)c(N(C)C)c2F)nc(N)c1C(C)=O [Compound 33-53, 4-Amino-2-(4-chloro-3-dimethylamino-2-fluorophenyl)-6-methoxycarbonyl-5-methylcarbonyl-pyrimidine]	0%	0%	0%	0%	0%	0%	10%	100%	20%	40%	20%	50%	–
C=Cc1c(N)nc(-c2ccc(Cl)c(N(C)C)c2F)nc1C(=O)OC [Compound 33-61]	0%	50%	0%	40%	10%	30%	20%	70%	20%	90%	30%	80%	–
C=C(C)c1c(N)nc(-c2ccc(Cl)c(N(C)C)c2F)nc1C(=O)OC [Compound 33-64, 4-Amino-2-(4-chloro-3-dimethylamino-2-fluorophenyl)-6-methoxycarbonyl-5-(prop-1-en-2-yl)-pyrimidine]	0%	0%	0%	0%	0%	0%	0%	10%	0%	10%	0%	20%	–
C=C(OCC)c1c(N)nc(-c2ccc(Cl)c(N(C)C)c2F)nc1C(=O)OC [Compound 33-67, 4-Amino-2-(4-chloro-3-dimethylamino-2-fluorophenyl)-5-(1-ethoxyethenyl)-6-methoxycarbonyl-pyrimidine]	0%	0%	0%	10%	0%	0%	0%	10%	0%	20%	0%	40%	–
C=Cc1c(N)nc(-c2ccc(Cl)c(N(C)C)c2F)nc1C(=O)OCC [Compound 33-101, 4-amino-2-(4-chloro-3-dimethylamino-2-fluorophenyl)-5-ethenyl-6-ethoxycarbonyl-pyrimidine]	60%	100%	90%	30%	90%	90%	80%	100%	90%	60%	80%	90%	–
C=Cc1c(N)nc(-c2ccc(Cl)c(N(C)C)c2F)nc1C(=O)OC(C)C [Compound 33-306, 4-Amino-2-(4-chloro-3-dimethylamino-2-fluorophenyl)-5-ethenyl-6-isopropoxycarbon-yl-pyrimidine]	20%	40%	20%	0%	20%	80%	40%	100%	70%	30%	70%	100%	–
C=Cc1c(N)nc(-c2ccc(Cl)c(N(C)C)c2F)nc1C(=O)OCCC [Compound 33-316]	60%	90%	90%	10%	70%	80%	70%	100%	100%	40%	90%	90%	–
C=Cc1c(N)nc(-c2ccc(Cl)c(N(C)C)c2F)nc1C(=O)OCC(C)C [Compound 33-326, 4-Amino-2-(4-chloro-3-dimethylamino-2-fluorophenyl)-5-ethenyl-6-(2-methylpropoxy) carbonyl-pyrimidine]	20%	60%	40%	10%	20%	60%	20%	100%	80%	50%	40%	90%	–
C=Cc1c(N)nc(-c2ccc(Cl)c(N(C)C)c2F)nc1C(=O)OCc1ccccc1 [Compound 33-336, 4-Amino-2-(4-chloro-3-dimethylamino-2-fluorophenyl)-5-ethenyl-6-phenylmethoxy-carbonyl-pyrimidine]	70%	100%	90%	20%	80%	80%	90%	100%	90%	40%	90%	90%	–
C=Cc1c(N)nc(-c2ccc(Cl)c(N(C)C)c2F)nc1C(=O)OCCCC [Compound 33-391]	70%	100%	100%	20%	90%	100%	70%	100%	90%	80%	90%	80%	–
C=Cc1c(N)nc(-c2ccc(Cl)c(N(C)C)c2F)nc1C(=O)OCCCCCCCC [Compound 33-392]	–	–	–	–	–	–	–	–	–	–	–	–	Percentage damage ALOMY, pre-emergence [1]: 70%; Percentage damage AMARE, pre-emergence [2]: 100%; Percentage damage ECHCG, pre-emergence [3]: 100%; Percentage damage IPOHE, pre-emergence [4]: 0%; Percentage damage SETFA, pre-emergence [5]: 90%; Percentage damage SOLNI, pre-emergence [6]: 80%; Percentage damage ALOMY, post-emergence [7]: 70%; Percentage damage AMARE, post-emergence [8]: 100%; Percentage damage ECHCG, post-emergence [9]: 80%; Percentage damage IPOHE, post-emergence [10]: 80%; Percentage damage SETFA, post-emergence [11]: 60%; Percentage damage SOLNI, post-emergence [12]: 90%
